Measurements from patent US10155754B2, “Substituted 2-imino-1,3-thiazolidin-4-ones as N-arachidonoylethanolamine cellular uptake inhibitors” (UNIVERSITAT BERN, priority 2014, dated 2018).
pIC50: −log10 of the molar value.

Legend:
[1] = system: AEA cellular uptake (U937 cells); assay: [3H]-AEA cellular uptake inhibition in U937 cells; type: cell-based; details: Homo sapiens, U-937, U937 cells, final 100 nM AEA with 0.5 nM [3H]-AEA, 15 min at 37° C.; read-out: AEA uptake IC50
How it was run: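 U937 cells (0.5×10^6 per sample) pre-incubated with compound (100 pM–100 μM, triplicates) for 15 min at 37 °C, then given 100 nM AEA including 0.5 nM [3H]-AEA for 15 min. Filtration, washing and scintillation counting of cell-associated radioactivity; IC50 by four-parameter nonlinear regression.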

FAAH = molecular target: T1, FAAH (Homo sapiens, UniProt O00519); assay: FAAH activity: hydrolysis of [3H]-AEA in U937 cell homogenates; type: biochemical; details: [3H]-AEA hydrolysis, final 100 nM AEA, read-out: FAAH inhibition IC50
T1 construct: endogenous in cells; host or cells: U937 cell homogenate
T1 sequence (O00519 1-579): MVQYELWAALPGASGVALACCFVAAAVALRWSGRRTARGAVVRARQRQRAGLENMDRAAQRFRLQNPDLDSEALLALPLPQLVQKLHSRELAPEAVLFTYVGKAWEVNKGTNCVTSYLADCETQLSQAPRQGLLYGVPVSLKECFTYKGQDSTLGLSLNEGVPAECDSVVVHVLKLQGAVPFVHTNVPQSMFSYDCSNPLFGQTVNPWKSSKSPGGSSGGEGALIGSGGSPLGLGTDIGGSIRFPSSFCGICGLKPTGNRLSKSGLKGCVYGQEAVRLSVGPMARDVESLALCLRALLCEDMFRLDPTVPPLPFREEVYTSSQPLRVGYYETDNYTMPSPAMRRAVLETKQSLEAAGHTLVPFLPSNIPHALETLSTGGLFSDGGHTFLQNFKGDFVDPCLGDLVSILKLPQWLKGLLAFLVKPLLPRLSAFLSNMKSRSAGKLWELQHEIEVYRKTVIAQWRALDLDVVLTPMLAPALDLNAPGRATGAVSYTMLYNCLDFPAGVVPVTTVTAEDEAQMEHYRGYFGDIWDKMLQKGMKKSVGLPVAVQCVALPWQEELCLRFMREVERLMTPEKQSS
Procedure: Hydrolysis of [^3H]-AEA by FAAH was determined as previously described in cell homogenates of U937 cells (0.18 mg protein) (Omeir et al., 1999, Biochem Biophys Res Commun, 264, 316-20; Mor et al., 2004, J Med Chem, 47, 4998-5008). Protein amounts of cell homogenates corresponded to 0.5×10^6 cells (U937), to assure best possible comparability of IC50 values as used for the AEA cellular uptake assays. URB597 was used as positive control. Protein quantification was performed using a BCA assay (Thermo Scientific). Enzyme activity was assessed by addition of vehicle or compounds in 10 μL DMSO to 490 μL homogenate in 10 mM Tris HCl, 1 mM EDTA, 0.1% (w/v) BSA fatty acid free, pH=8 and incubation for 15 min at 37° C. After, a mixture of AEA plus [ethanolamine-1-^3H]-AEA (0.5 nM) at final 100 nM was added to the homogenates and incubated for 15 min at 37° C. The reaction was stopped by addition of 1 mL ice-cold CHCl3:MeOH (1:1) followed by vigorous vortexing. Phase separation was achieved by centrifugation at 10'000×g at 4° C. for 10 min. Radioactivity of the separated aqueous phase (upper phase) containing [^3H-ethanolamine] or [^3H-glycerol] was measured by liquid scintillation counting on a Tri-Carb 2100 TR liquid scintillation analyzer after addition of 3.5 mL Ultima Gold scintillation cocktail (PerkinElmer Life Sciences). Results are expressed as hydrolysis of tritium substrate in percent of vehicle treated control. IC50 values were calculated by GraphPad®. Data are reported as means of n=3 independent experiments performed in triplicates.

| Compound | pIC50 [1] | pIC50 (FAAH) |
| --- | --- | --- |
| Cc1ccc(/N=C2\S/C(=C\c3ccc4[nH]cnc4c3)C(=O)N2CC(C)C)cc1 [04_A_X, (2Z,5Z)-5-((1H-benzo[d]imidazol-5-yl)methylene)-2-(p-tolylimino)-3-isobutylthiazolidin-4-one] | 6.81 | 4.84 |
| Cc1ccc(/N=C2\S/C(=C\c3ccc(CO)cc3)C(=O)N2c2ccccc2)cc1 [22_A_N, (2Z,5Z)-5-(4-(hydroxymethyl)benzylidene)-2-(p-tolylimino)-3-phenylthiazolidin-4-one] | 6.95 | 4.71 |
| CC(C)CN1C(=O)/C(=C/c2ccc3[nH]ccc3c2)S/C1=N\c1ccc(F)cc1 [03_B_X, (2Z,5Z)-5-((1H-indol-5-yl)methylene)-2-(4-fluorophenylimino)-3-isobutylthiazolidin-4-one] | 6.32 | < 4.00 |
| CC(C)CN1C(=O)/C(=C/c2ccc(CO)cc2)S/C1=N\c1ccc(F)cc1 [22_B_X, (2Z,5Z)-5-(4-(hydroxymethyl)benzylidene)-2-(4-fluorophenylimino)-3-isobutylthiazolidin-4-one] | 6.90 | 4.72 |
| Cc1ccc(/N=C2\S/C(=C\c3ccc4ncsc4c3)C(=O)N2C2CCCCC2)cc1 [32_A_I, (2Z,5Z)-2-(p-tolylimino)-5-((benzo[d]thiazol-6-yl)methylene)-3-cyclohexylthiazolidin-4-one] | 6.47 | < 4.00 |
| O=C1/C(=C/c2ccc3ncsc3c2)S/C(=N\c2ccccc2)N1c1ccccc1 [compound 32, (2Z,5Z)-5-((benzo[d]thiazol-6-yl)methylene)-3-phenyl-2-(phenylimino)thiazolidin-4-one] | 6.54 | < 4.00 |
| O=C1/C(=C/c2ccc3[nH]cnc3c2)S/C(=N\c2ccc(F)cc2)N1C1CCCCC1 [04_B_I, (2Z,5Z)-5-((1H-benzo[d]imidazol-5-yl)methylene)-2-(4-fluorophenylimino)-3-cyclohexylthiazolidin-4-one] | 6.88 | 4.64 |
| Cc1ccc(/N=C2\S/C(=C\c3ccc4c(cnn4C)c3)C(=O)N2C2CCCCC2)cc1 [28_A_I, (2Z,5Z)-2-(p-tolylimino)-3-cyclohexyl-5-((1-methyl-1H-indazol-5-yl)methylene)thiazolidin-4-one] | 6.41 | < 4.00 |
| COc1ccc(N2C(=O)/C(=C/c3ccc4[nH]cnc4c3)S/C2=N\Cc2ccccc2)cc1 [04_C_F, (2Z,5Z)-5-((1H-benzo[d]imidazol-5-yl)methylene)-2-(benzylimino)-3-(4-methoxyphenyl)thiazolidin-4-one] | 6.32 | < 5.00 |
| Cc1ccc(/N=C2\S/C(=C\c3ccc4[nH]cnc4c3)C(=O)N2c2ccc(C)cc2)cc1 [04_A_A, (2Z,5Z)-5-((1H-benzo[d]imidazol-5-yl)methylene)-2-(p-tolylimino)-3-p-tolylthiazolidin-4-one] | 6.41 | < 4.00 |
| Cc1ccc(/N=C2\S/C(=C\c3ccc4c(cnn4C)c3)C(=O)N2CC(C)C)cc1 [28_A_X, (2Z,5Z)-2-(p-tolylimino)-3-isobutyl-5-((1-methyl-1H-indazol-5-yl)methylene)thiazolidin-4-one] | 6.45 | < 4.00 |
| O=C1/C(=C/c2ccc3[nH]ccc3c2)S/C(=N\Cc2ccccc2Cl)N1c1ccccc1 [03_T_N, (2Z,5Z)-5-((1H-indol-5-yl)methylene)-2-(2-chlorobenzylimino)-3-phenylthiazolidin-4-one] | 6.58 | < 4.00 |
| COc1ccc(/N=C2\S/C(=C\c3ccc(CO)cc3)C(=O)N2c2ccccc2)cc1 [22_F_N, (2Z,5Z)-5-(4-(hydroxymethyl)benzylidene)-2-(4-methoxyphenylimino)-3-phenylthiazolidin-4-one] | 6.87 | < 4.00 |

Other lines, results leading:

| pIC50 [1] | pIC50 (FAAH) | Compound |
| --- | --- | --- |
| 6.97 | < 4.00 | Cc1ccc(/N=C2\S/C(=C\c3ccc4[nH]cnc4c3)C(=O)N2c2ccccc2)cc1 [04_A_N, (2Z,5Z)-5-((1H-benzo[d]imidazol-5-yl)methylene)-2-(p-tolylimino)-3-phenylthiazolidin-4-one] |
| 6.43 | 6.36 | COc1ccc(C/N=C2\S/C(=C\c3ccc4c(c3)OCCO4)C(=O)N2c2ccccc2)cc1 [24_Q_N, (2Z,5Z)-2-(4-methoxybenzylimino)-5-((2,3-dihydrobenzo[b][1,4]dioxin-7-yl)methylene)-3-phenylthiazolidin-4-one] |
| 6.71 | < 4.00 | O=C1/C(=C/c2ccc3[nH]cnc3c2)S/C(=N\c2ccccc2)N1c1ccccc1 [compound 04, (2Z,5Z)-5-((1H-benzo[d]imidazol-5-yl)methylene)-3-phenyl-2-(phenylimino)thiazolidin-4-one] |
| 6.54 | < 4.00 | Cc1ccc(/N=C2\S/C(=C\c3ccc4c(c3)OCCO4)C(=O)N2c2ccc(C)cc2)cc1 [24_A_A, (2Z,5Z)-2-(p-tolylimino)-5-((2,3-dihydrobenzo[b][1,4]dioxin-6-yl)methylene)-3-p-tolylthiazolidin-4-one] |
| 6.03 | < 4.00 | COc1ccc(/N=C2\S/C(=C\c3ccc4c(c3)OCCO4)C(=O)N2c2ccccc2)cc1 [24_F_N, (2Z,5Z)-2-(4-methoxyphenylimino)-5-((2,3-dihydrobenzo[b][1,4]dioxin-6-yl)methylene)-3-phenylthiazolidin-4-one] |
| 6.48 | < 4.00 | Cc1ccc(N2C(=O)/C(=C/c3ccc4c(c3)OCCO4)S/C2=N\c2ccccc2)cc1 [24_N_A, (2Z,5Z)-5-((2,3-dihydrobenzo[b][1,4]dioxin-6-yl)methylene)-2-(phenylimino)-3-p-tolylthiazolidin-4-one] |
| 7.48 | 5.89 | COc1ccc(C/N=C2\S/C(=C\c3ccc4c(c3)OCCO4)C(=O)N2c2ccc(F)cc2)cc1 [24_Q_B, (2Z,5Z)-2-(4-methoxybenzylimino)-3-(4-fluorophenyl)-5-((2,3-dihydrobenzo[b][1,4]dioxin-6-yl)methylene)thiazolidin-4-one] |
| 6.79 | < 4.00 | COc1ccc(/N=C2\S/C(=C\c3ccc4[nH]cnc4c3)C(=O)N2c2ccccc2)cc1 [04_F_N, (2Z,5Z)-5-((1H-benzo[d]imidazol-5-yl)methylene)-2-(4-methoxyphenylimino)-3-phenylthiazolidin-4-one] |
| 6.34 | < 4.00 | O=C1/C(=C/c2ccc3c(c2)OCCO3)S/C(=N\c2ccccc2)N1C1CCCCC1 [24_N_I, (2Z,5Z)-3-cyclohexyl-5-((2,3-dihydrobenzo[b][1,4]dioxin-6-yl)methylene)-2-(phenylimino)thiazolidin-4-one] |
| 6.28 | 6.04 | O=C1/C(=C/c2ccc3c(c2)OCCO3)S/C(=N\Cc2ccc(F)cc2)N1c1ccccc1 [24_P_N, (2Z,5Z)-2-(4-fluorobenzylimino)-5-((2,3-dihydrobenzo[b][1,4]dioxin-6-yl)methylene)-3-phenylthiazolidin-4-one] |
| 6.18 | < 4.00 | O=C1/C(=C/c2ccc3c(c2)OCCO3)S/C(=N\c2ccccc2)N1c1ccc(F)cc1 [24_N_B, (2Z,5Z)-3-(4-fluorophenyl)-5-((2,3-dihydrobenzo[b][1,4]dioxin-6-yl)methylene)-2-(phenylimino)thiazolidin-4-one] |
| 6.29 | 5.58 | CC(C)CN1C(=O)/C(=C/c2ccc3c(c2)OCCO3)S/C1=N\Cc1ccc(F)cc1 [24_P_X, (2Z,5Z)-2-(4-fluorobenzylimino)-5-((2,3-dihydrobenzo[b][1,4]dioxin-6-yl)methylene)-3-isobutylthiazolidin-4-one] |
| 6.79 | < 4.00 | CC(C)CN1C(=O)/C(=C/c2ccc3c(c2)OCCO3)S/C1=N\c1ccc(F)cc1 [24_B_X, (2Z,5Z)-2-(4-fluorophenylimino)-5-((2,3-dihydrobenzo[b][1,4]dioxin-6-yl)methylene)-3-isobutylthiazolidin-4-one] |
